Drawing on patent publication US9316633B2, “Methods for identifying inhibitors of solute transporters” (The Regents of the University of California, priority 2006, dated 2016), this text covers EC50 for 40 compounds.

The structures appear in SMILES notation.

The target in one assay is T1, UT-B (Homo sapiens, UniProt Q13336).
T1 construct: the indicator cells are red blood cells that endogenously express the UT-B urea transporter; endogenous in cells; host or cells: human red blood cells (whole venous blood, single donor)
T1 sequence (Q13336 1-389): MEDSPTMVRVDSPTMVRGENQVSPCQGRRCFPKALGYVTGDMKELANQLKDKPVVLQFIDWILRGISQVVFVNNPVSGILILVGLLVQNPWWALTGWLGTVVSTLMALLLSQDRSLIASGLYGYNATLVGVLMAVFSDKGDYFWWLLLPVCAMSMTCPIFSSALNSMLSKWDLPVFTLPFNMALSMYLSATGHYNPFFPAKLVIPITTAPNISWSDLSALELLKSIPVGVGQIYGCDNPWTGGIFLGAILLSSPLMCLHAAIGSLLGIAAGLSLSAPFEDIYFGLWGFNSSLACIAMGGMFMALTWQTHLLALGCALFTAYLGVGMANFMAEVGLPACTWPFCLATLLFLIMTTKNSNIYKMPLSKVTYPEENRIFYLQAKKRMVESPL
Briefly: RBC lysis assay, human RBCs loaded with acetamide. It is filed as cell-based. The note with it: Table 5, phthalazinamines; UT-B inhibitory potency.
For orientation: EC50 means the midpoint of the concentration-response curve. A lower EC50 goes with a more potent agent. Regarding `COc1ccc(Nc2nnc(-c3ccc(C(N)=O)cc3)c3ccccc23)cc1` [ureainh-301, 4-(4-(4-methoxyphenylamino)phthalazin-1-yl)benzamide], it took 100 nM to reach a half-maximal effect (EC50).
Same read-out and setting: in the case of `CN(C)C(=O)c1ccc(Nc2nnc(-c3ccc(C(N)=O)cc3)c3ccccc23)cc1` [ureainh-303, 4-(4-(4-carbamoylphenyl)phthalazin-1-ylamino)-N,N-dimethylbenzamide] it was 200 nM.
For `CNC(=O)c1ccc(Nc2nnc(-c3ccc(C(N)=O)cc3)c3ccccc23)cc1` [ureainh-304, 4-(4-(4-carbamoylphenyl)phthalazin-1-ylamino)-N-methylbenzamide], the EC50 is 600 nM.
On the same count and under the same terms, for `NC(=O)c1ccc(-c2nnc(Nc3ccc(O)cc3)c3ccccc23)cc1` [ureainh-306, 4-(4-(4-hydroxyphenylamino)phthalazin-1-yl)benzamide] the value was 2000 nM.
With `NC(=O)c1ccc(-c2nnc(Nc3ccc(S(N)(=O)=O)cc3)c3ccccc23)cc1` [ureainh-307, 4-(4-(4-sulfamoylphenylamino)phthalazin-1-yl)benzamide], the response was half-maximal at 3000 nM (EC50).
Consider `CCN(CC)C(=O)c1ccc(-c2nnc(Nc3ccc(C(=O)NC)cc3)c3ccccc23)cc1` [ureainh-308, N,N-diethyl-4-(4-(4-(methylcarbamoyl)phenylamino)phthalazin-1-yl)benzamide], for which the concentration for a half-maximal effect (EC50) is 2000 nM. Against the preceding compound, the EC50 is about 1.5-fold lower.
Take `CCN(CC)C(=O)c1ccc(-c2nnc(Nc3ccc(O)cc3)c3ccccc23)cc1` [ureainh-309, N,N-diethyl-4-(4-(4-hydroxyphenylamino)phthalazin-1-yl)benzamide]: the EC50 was found to be 5000 nM.
Regarding `CCN(CC)C(=O)c1ccc(-c2nnc(Nc3ccc(C(=O)N(C)C)cc3)c3ccccc23)cc1` [ureainh-310, 4-(4-(4-(diethylcarbamoyl)phenyl)phthalazin-1-ylamino)-N,N-dimethylbenzamide], it took 3000 nM to reach a half-maximal effect (EC50).
The same measure, in the same setting: in the case of `CNC(=O)COc1ccc(Nc2nnc(-c3ccc(C(=O)NCCO)cc3)c3ccccc23)cc1` [ureainh-311, N-(2-hydroxyethyl)-4-(4-(4-(2-(methylamino)-2-oxoethoxy)phenylamino)phthalazin-1-yl)benzamide] it was 800 nM.
On the same count and under the same terms, in the case of `COc1ccc(-c2nnc(Nc3ccc(OCC(N)=O)cc3)c3ccccc23)cc1` [ureainh-312, 2-(4-(4-(4-methoxyphenyl)phthalazin-1-ylamino)phenoxy)acetamide] it was 1000 nM; in that of `COc1ccc(-c2nnc(Nc3ccc(-c4nc5ccccc5[nH]4)cc3)c3ccccc23)cc1` [ureainh-313, N-(4-(1H-benzo[d]imidazol-2-yl)phenyl)-4-(4-methoxyphenyl) phthalazin-1-amine], 10000 nM; in that of `Cc1ccc(-c2nnc(Nc3ccc(OCC(N)=O)cc3)c3ccccc23)cc1` [ureainh-314, 2-(4-(4-p-tolylphthalazin-1-ylamino)phenoxy) acetamide], 2000 nM.
`CNC(=O)COc1ccc(Nc2nnc(-c3ccc(C)cc3)c3ccccc23)cc1` [ureainh-315, N-methyl-2-(4-(4-p-tolylphthalazin-1-ylamino)phenoxy)acetamide]: the EC50 came out at 2000 nM.
With `COc1ccc(Nc2nnc(-c3ccc(O)cc3)c3ccccc23)cc1` [ureainh-316, 4-(4-(4-methoxyphenylamino)phthalazin-1-yl)phenol], the EC50 came to 2000 nM.
In turn, `CC(=O)Nc1ccc(Nc2nnc(-c3ccc(O)cc3)c3ccccc23)cc1` [ureainh-317, N-(4-(4-(4-hydroxyphenyl)phthalazin-1-ylamino)phenyl)acetamide] returned an EC50 of 3000 nM. This EC50 is about 1.5-fold higher than that of the compound before.
Same read-out and setting: in the case of `NC(=O)COc1ccc(Nc2nnc(-c3ccccc3)c3ccccc23)cc1` [ureainh-318, 2-(4-(4-phenylphthalazin-1-ylamino)phenoxy) acetamide] it was 2000 nM; in that of `CNC(=O)COc1ccc(Nc2nnc(-c3ccccc3)c3ccccc23)cc1` [ureainh-319, N-methyl-2-(4-(4-phenylphthalazin-1-ylamino)phenoxy)acetamide], 3000 nM; in that of `COc1ccc(Nc2nnc(-c3ccccc3)c3ccccc23)cc1` [ureainh-320, N-(4-methoxyphenyl)-4-phenylphthalazin-1-amine], 4000 nM.
On the same count and under the same terms, for `Cc1ccc(-c2nnc(Nc3ccc(C(N)=O)cc3)c3ccccc23)cc1S(=O)(=O)N(C)C` [ureainh-321, 4-(4-(3-(N,N-dimethylsulfamoyl)-4-methylphenyl)phthalazin-1-ylamino) benzamide] the value was 1000 nM; for `Cc1ccc(-c2nnc(Nc3ccc(OCC(N)=O)cc3)c3ccccc23)cc1S(=O)(=O)N(C)C` [ureainh-322, 2-(4-(4-(3-(N,N-dimethylsulfamoyl)-4-methylphenyl)phthalazin-1-ylamino)phenoxy)acetamide], 2000 nM; for `COC(=O)c1ccc(Nc2nnc(-c3ccc(C)c(S(=O)(=O)NCCO)c3)c3ccccc23)cc1` [ureainh-323, methyl 4-(4-(3-(N-(2-hydroxyethyl)sulfamoyl)-4-methylphenyl)phthalazin-1-ylamino) benzoate], 2000 nM.
Still for that read-out and setting: for `Cc1ccc(-c2nnc(Nc3ccc(C(N)=O)cc3)c3ccccc23)cc1S(=O)(=O)NCCO` [ureainh-324, 4-(4-(3-(N-(2-hydroxyethyl)sulfamoyl)-4-methylphenyl)phthalazin-1-ylamino) benzamide] the value was 5000 nM; for `CNS(=O)(=O)c1cc(-c2nnc(Nc3ccc(OCC(N)=O)cc3)c3ccccc23)ccc1C` [ureainh-325, 2-(4-(4-(4-methyl-3-(N-methylsulfamoyl)phenyl)phthalazin-1-ylamino)phenoxy)acetamide], 2000 nM; for `CNC(=O)COc1ccc(Nc2nnc(-c3ccc(C)c(S(=O)(=O)NC)c3)c3ccccc23)cc1` [ureainh-326, N-methyl-2-(4-(4-(4-methyl-3-(N-methylsulfamoyl)phenyl)phthalazin-1-ylamino)phenoxy) acetamide], 2000 nM.
For `Cc1ccc(-c2nnc(Nc3ccc(O)cc3)c3ccccc23)cc1S(=O)(=O)N1CCOCC1` [ureainh-328, 4-(4-(4-methyl-3-(morpholinosulfonyl)phenyl)phthalazin-1-ylamino)phenol], the 50% effective concentration (EC50) was 3000 nM.
On the same count and under the same terms, in the case of `Cc1ccc(-c2nnc(Nc3ccc(C(N)=O)cc3)c3ccccc23)cc1S(N)(=O)=O` [ureainh-329, 4-(4-(4-methyl-3-sulfamoylphenyl)phthalazin-1-ylamino) benzamide] it was 5000 nM.
`CNC(=O)COc1ccc(Nc2nnc(-c3ccc(C)c(S(N)(=O)=O)c3)c3ccccc23)cc1` [ureainh-330, N-methyl-2-(4-(4-(4-methyl-3-sulfamoylphenyl)phthalazin-1-ylamino)phenoxy)acetamide] came in with an EC50 of 10000 nM.
`Cc1ccc(-c2nnc(Nc3ccc(O)cc3)c3ccccc23)cc1S(=O)(=O)NC(C)(C)CO` [ureainh-331, N-(1-hydroxy-2-methylpropan-2-yl)-5-(4-(4-hydroxyphenylamino)phthalazin-1-yl)-2-methylbenzenesulfonamide] yielded a 50% effective concentration (EC50) of 9000 nM.
The same measure, in the same setting: for `COc1ccc(-c2nnc(Oc3ccccc3)c3ccccc23)cc1` [ureainh-332, 1-(4-methoxyphenyl)-4-phenoxyphthalazine] the value was 2000 nM; for `Cc1ccc(-c2nnc(Oc3ccccc3)c3ccccc23)cc1` [ureainh-333, 1-phenoxy-4-p-tolylphthalazine], 3000 nM.

Staying with this assay, now noted: Table 7, aminobenzimidazoles; UT-B inhibitory potency.
As to `CCCn1c(NCc2cc(Cl)ccc2O)nc2ccccc21` [ureainh-401, 4-chloro-2-((1-propyl-1H-benzo[d]imidazol-2-ylamino)methyl)phenol], the EC50 turned out to be 300 nM.
Same read-out and setting: in the case of `CCn1c(NCc2cc(Cl)ccc2O)nc2ccccc21` [ureainh-402, 4-chloro-2-((1-ethyl-1H-benzo[d]imidazol-2-ylamino)methyl)phenol] it was 400 nM.
`CC(C)n1c(NCc2cc(Cl)ccc2O)nc2ccccc21` [ureainh-403, 4-chloro-2-((1-isopropyl-1H-benzo[d]imidazol-2-ylamino)methyl)phenol] returned a 50% effective concentration (EC50) of 5000 nM.
In the case of `CC(C)n1c(NCc2cc(Br)ccc2O)nc2ccccc21` [ureainh-405, 4-bromo-2-((1-isopropyl-1H-benzo[d]imidazol-2-ylamino)methyl)phenol], the response was half-maximal at 400 nM (EC50).
On the same count and under the same terms, in the case of `C=CCn1c(NCc2cc(Br)ccc2O)nc2ccccc21` [ureainh-406, 2-((1-allyl-1H-benzo[d]imidazol-2-ylamino)methyl)-4-bromophenol] it was 1000 nM; in that of `CCN(CC)CCn1c(NCc2ccccc2O)nc2ccccc21` [ureainh-407, 2-((1-(2-(diethylamino)ethyl)-1H-benzo[d]imidazol-2-ylamino)methyl)phenol], 800 nM.
Still for that read-out and setting: for `Oc1ccccc1CNc1nc2ccccc2n1CCN1CCCCC1` [ureainh-408, 2-((1-(2-(piperidin-1-yl)ethyl)-1H-benzo[d]imidazol-2-ylamino)methyl)phenol] the value was 900 nM.
The compound `Oc1ccccc1CNc1nc2ccccc2n1CCN1CCOCC1` [ureainh-412, 2-((1-(2-morpholinoethyl)-1H-benzo[d]imidazol-2-ylamino)methyl)phenol] had an EC50 of 6000 nM.
`CCCn1c(NCc2cc(C)ccc2O)nc2ccccc21` [ureainh-414, 4-methyl-2-((1-propyl-1H-benzo[d]imidazol-2-ylamino)methyl)phenol] showed an EC50 of 1000 nM.
On the same count and under the same terms, in the case of `Cc1ccc(O)c(CNc2nc3ccccc3n2C(C)C)c1` [ureainh-415, 2-((1-isopropyl-1H-benzo[d]imidazol-2-ylamino)methyl)-4-methylphenol] it was 1000 nM.
